Measured values from patent publication US20210322327A1, “EXTRACELLULAR VESICLES COMPRISING STING-AGONIST” (Codiak BioSciences, Inc., priority 2018, published 2021).

Tests used:
Format in all cases: in vivo, C57BL/6 mice
[1] = Tumor pharmacokinetics after intratumoral injection; conditions: B16F10 tumor
Description: To examine the tumor pharmacokinetics of STING agonist, C57BL/6 mice were inoculated subcutaneously with 1×10^6 B16F10 murine melanoma cells (n=3 mice per group and time). Eight days post-inoculation, the tumors were injected intratumorally with 30 μg of free 3-3 cAIMPdFSH, 0.3 μg of free 3-3 cAIMPdFSH, or 0.3 μg 3-3 cAIMPdFSH loaded in PTGFRN-overexpressing exosomes. Five minutes, thirty minutes, two hours, 6 hours, 24 hours, and 48 hours after injection, tumors were excised and lysed with 6 volume of plasma. The concentration of 3-3 cAIMPdFSH was measured by LC-MS/MS, as described in Example 1. Free 3-3 cAIMPdFSH in both 30 μg and 0.3 μg was disappeared quickly from tumor, having half-life of around 10 minutes.

[2] = Plasma pharmacokinetics after intravenous injection; conditions: 20 μg free
Description: To examine the pharmacokinetics of STING agonist in mouse plasma, naïve C57BL/6 mice were injected intravenously with 20 μg of free 3-3 cAIMPdFSH, or 0.1 μg, 0.3 μg, 0.6 μg 3-3 cAIMPdFSH loaded in PTGFRN-overexpressing exosomes. One, five, ten, and thirty minutes injection, blood was taken, and plasma were prepared. The concentration of 3-3 cAIMPdFSH was measured by LC-MS/MS, as described in Example 1.

[3] = tested on: IFNβ, CXCL9, CXCL10, IFNγ gene expression; serum cytokines; experiment: Cytokine levels after single intratumoral dose in B16F10 tumor-bearing mice; conditions: 20 μg single intratumoral dose, four hours post-injection
Description: Four groups of C57BL/6 mice (3-4 mice per group) were inoculated subcutaneously with 5×10^5 B16F10 tumor cells. Eight days post-inoculation the mice were injected with a single intratumoral dose of PBS, 20 μg of free ML RR-S2 CDA, 0.2 μg of free ML RR-S2 CDA, or 0.2 μg of ML RR-S2 CDA loaded in PTGFN-overexpressing exosomes (exo ML RR-S2 CDA). Four hours post-injection the tumors, draining lymph nodes, spleens, and serum were collected and cytokine levels were measured.
To confirm that the effects observed in FIGS. 20-23 were applicable to other STING agonists, B16F10 subcutaneous tumor-bearing mice were injected with 20 μg of free 3-3 cAIMPdFSH, 0.2 μg of free 3-3 cAIMPdFSH, or 0.2 μg of 3-3 cAIMPdFSH loaded in PTGFRN-overexpressing exosomes (exo 3-3 cAIMPdFSH).

STING pathway = STING pathway activation after intraperitoneal or intratumoral dose in B16F10 tumor-bearing mice; conditions: 20 μg single IP dose
Description: Five groups of C57BL/6 mice (n=4 mice per group) were inoculated subcutaneously with 5×10^5 B16F10 murine melanoma cells. Eight days post-inoculation the mice were injected intraperitoneally (IP) with a single dose of either PBS, 20 μg ML RR-S2, 0.2 μg ML RR-S2, 0.2 μg ML RR-S2 loaded in PTGFRN-overexpressing exosomes (Exo STING IP), or intratumorally (IT) with a single dose of 0.2 μg ML RR-S2 loaded in PTGFRN-overexpressing exosomes (Exo STING IT). The exosome-encapsulated STING agonist formulations were loaded and quantitated as described in Example 1.

[4] = tested on: B16F10 murine melanoma cells; experiment: B16F10 melanoma tumor growth, intratumoral injection; conditions: for tumor growth compared to PBS: day 25
Description: To test this hypothesis, C57BL/6 mice were inoculated subcutaneously with 5×10^5 B16F10 murine melanoma cells (n=5 mice per group). Five, eight, and eleven days post-inoculation the mice were injected intratumorally with PBS, 20 μg ML RR-S2, 0.2 μg ML RR-S2, or 0.2 μg ML RR-S2 loaded in PTGFRN-overexpressing exosomes Tumor volumes were measured daily until day 39, and animals were sacrificed when tumor volume reached 2000 mm^3.

B16F10 cells = experiment: B16F10 re-challenge on the opposite flank; conditions: 20 μg group, re-challenged day 21, read day 39
Description: STING pathway activation leads to memory T-cell recruitment and ultimately a durable adaptive immune response. To determine whether the anti-tumor effects in this study led to an immune response, the five animals in the high dose STING agonist and Exo STING groups were re-challenged on day 21 by transplantation of 5×10^5 B16F10 cells on the opposite flank. Five additional naïve mice were inoculated with the same tumor cell preparation and treated daily with PBS to ensure cell viability and growth kinetics. By day 39 (18 days post-challenge) all mice in the PBS group were sacrificed.

[5] = tested on: ovalbumin (OVA)-reactive T-cells; experiment: OVA-reactive memory T-cells by tetramer flow cytometry; conditions: six days
Description: STING pathway agonism in dendritic cells enhances antigen presentation, IFNβ production, and recruits CD8+ memory T-cells to elicit a durable adaptive immune response. To determine whether Exo STING could induce a memory T-cell response to a defined antigen, an antigen-specific T-cell response study was carried out using purified ovalbumin (OVA). C57BL/6 mice were injected intraperitoneally with 200 μg OVA mixed with either PBS, 20 μg ML RR-S2, 0.2 μg ML RR-S2, or 0.2 μg ML RR-S2 loaded in PTGFRN-overexpressing exosomes (n=4-10 mice per group). Six days post-injection, spleens and mesenteric lymph nodes were collected, homogenized to a single-cell suspension, and live lymphocytes were enriched by density centrifugation. Isolated lymphocytes were analyzed by flow cytometry by measuring binding to immobilized tetrameric MHC class I bound to the OVA peptide SIINFEKL and phycoerythrin (PE) (iTAg Tetramer/PE—H-2 OVA; MBL®, Code #T03000). OVA-reactive memory T-cells were quantified by gating on PE, CD44, and CD8 positivity.

OVA-reactive splenocytes = experiment: IFNγ ELISpot of splenocytes with OVA peptide SIINFEKL
Description: As an orthogonal method to measure antigen-specific immunity, IFNγ-expression was measured by ELISpot according to standard protocols (ImmunoSpot®; Cellular Technology Limited). Splenocytes were homogenized to a single-cell suspension and plated (200,000 cells/well) in a plate coated with an anti-IFNγ antibody. The OVA peptide SIINFEKL was added to the cells for 18 hours to induce IFNγ production, cells were washed from the plate, and plate-bound IFNγ was detected using an orthogonal antibody (FIG. 41D). The total number of reactive spots per plate were counted and compared across groups using ImmunoSpot® software (Cellular Technology Limited).

| SMILES | half-life in tumor ([1]; 0.3 μg free) | half-life in tumor ([1]; 30 μg free) | half-life in plasma [2] | IFNβ gene expression levels in the tumor [3] | IFNβ expression in tumor, pancreas and spleen (STING pathway) | tumor growth compared to PBS ([4]; 0.2 μg intratumoral days 5, 8, 11) | complete response (undetectable tumors at the site of inoculation) ([4]; 20 μg intratumoral) | tumor growth compared to PBS ([4]; 20 μg intratumoral days 5, 8, 11) | animals in which re-challenge tumors failed to grow (B16F10 cells) | OVA-reactive T-cells in spleen and mesenteric lymph nodes ([5]; 0.2 μg IP with 200 μg OVA) | OVA-reactive T-cells in spleen and mesenteric lymph nodes ([5]; 20 μg IP with 200 μg OVA) | OVA-reactivity (IFNγ spots) (OVA-reactive splenocytes; 0.2 μg IP) | OVA-reactivity (IFNγ spots) (OVA-reactive splenocytes; 20 μg IP) |
| --- | --- | --- | --- | --- | --- | --- | --- | --- | --- | --- | --- | --- | --- |
| Nc1ncnc2c1ncn2[C@@H]1O[C@@H]2COP(=O)(S)O[C@H]3[C@@H](F)[C@H](n4cnc5c(=O)[nH]cnc54)O[C@@H]3COP(O)(=S)O[C@H]2[C@H]1F (stereo partly shown) [3-3 cAIMPdFSH, 3′3′-cAIMPdFSH] | around 10 minutes | around 10 minutes | 1.2 min | – | – | – | – | – | – | – | – | – | – |
| Nc1ncnc2c1ncn2[C@@H]1O[C@@H]2COP(O)(=S)O[C@@H]3C(O)[C@@H](COP(O)(=S)O[C@H]2[C@H]1O)O[C@H]3n1cnc2c(N)ncnc21 (stereo partly shown) [ML RR-S2 CDA] | – | – | – | higher than the 0.2 μg free STING agonist and PBS groups | induced IFNβ expression in the tumor, pancreas, and spleen above the PBS-treated group | moderately potentiated | three out of five | almost completely eliminated | four out of 5 | no activity in the spleen and only a modest response in mesenteric lymph nodes | A greater proportion of OVA-reactive T-cells | very low levels of OVA-reactivity | highly reactive |
